# Reference: patent publication US20260240740A1, “MULTI-PHOTOPROTECTIVE COMPOUNDS AND USES THEREOF” (SKINOSIVE, priority 2022, published 2026)
# Columns and labels:
# [1] = test system: polylysine matrix (non thiolated); assay: Bio adhesion on polylysine matrix (non thiolated); conditions: overnight incubation in ethanol/PBS (90%/10%), washed 10 times with ethanol
# Protocol: (§1) Polylysine and Polylysine enriched in SH by thiolation of primary amines using Traut's reagent were used for coating 96-well microplates. UV filters (BOO and BOO-OM) were incubated overnight under orbital agitation on the different matrices (n=3 for each condition) (uncoated wells were used as negative controls), in an ethanol/PBS (90%/10%) solution. After incubation, each microplate well was thoroughly washed 10 times with ethanol, before measuring UV absorbance. Whole UV/Visible absorbance spectrum from 220 to 1000 nm were measured in the center of each microplate well. In addition, specific UV absorbance at 310 nm was measured by matrix scan over the whole the well as a 10×10 matrix.
# [2] = UV absorbance profile: λmax in solvents, FLUOstar plate reader; assay type: physicochemical; conditions: for λmax double peak, first peak / λmax double peak, second peak: 50 μM
# Protocol: Compound #2 (OOD), Univul A plus (DHHB)+Octocrylene (OCR) were dissolved in a solvent at the same concentration (125 μM).
# Compound #4 (OHD), Univul A plus (DHHB)+Octocrylene (OCR) were dissolved in a solvent at the same concentration (125 μM).
# Compound #5 (BOO) and BEMT (6,6′-(6-(4-methoxyphenyl)-1,3,5-triazine-2,4-diyl)bis(3-((2-ethylhexyl)oxy)phenol)=Tinosorb S)+Octocrylene (OCR) were dissolved in a solvent at the same concentration (50 μM).
# UV Absorbance Profil of Compound #6 (BOO-OM) Compound #6 (BOO-OM) and BEMT (6,6′-(6-(4-methoxyphenyl)-1,3,5-triazine-2,4-diyl)bis(3-((2-ethylhexyl)oxy)phenol)=Tinosorb S)+Octocrylene (OCR) were dissolved in a solvent at the same concentration (50 μM).
# pig skin = assay: UV protection ex vivo on pig skin by autofluorescence quenching
# Protocol: UV Protection Performance of Compound #2 (OOD) UVB and UVA protections have been assessed ex vivo on pig skin by measuring the autofluorescence quenching. OOD (Compound #2), the mix of DHHB+OCR were solubilized at the same molar concentration in Dottisol (isosorbide dimethyl ether), covered 6.25 cm2 skin square and incubated 20 min or 2 hours at room temperatures, and then 7 mm skin punches were cut and placed in a black 96-well plate. UVB and UVA protections were measured after respectively an excitation at 300 nm and 355 nm and a fluorescence emission was read at 460 nm. DMSO was added on the pig skin before the reading of the residual fluorescence.
# UVB and UVA protections have been assessed ex vivo on pig skin by measuring the autofluorescence quenching. BOO (Compound #5) and the mix of BEMT+OCR were solubilized at the same molar concentration in Dottisol (isosorbide dimethyl ether), covered 6.25 cm^2 skin square and incubated 4 hours at 34° C., washed or not with 10 mL Ethanol for 5 min, and then 7 mm diameter skin punches were cut and placed in a black 96-well plate. UVB and UVA protections were measured after respectively an excitation at 300 nm and 355 nm and a fluorescence emission was read at 460 nm.
# UVB protection has been assessed ex vivo on pig skin by measuring the autofluorescence quenching. BOO (Compound #5), BOO-OM (Compound #6) and the mix of BEMT+OCR were solubilized at the same molar concentration in DMDA (dimethyl capramide), covered 6.25 cm2 skin square and incubated 2 hours at 34° C., washed or not with 10 mL Ethanol for 5 min, and then 7 mm diameter skin punches were cut and placed in a black 96-well plate. UVB protection was measured after respectively an excitation at 300 nm and a fluorescence emission was read at 460 nm.
# [3] = Solubility in sunscreen solvents; assay type: physicochemical; conditions: 50° C.
# Protocol: Compound #2 (OOD) and a sunscreen solvent were weighed in a Becher. The Becher was placed on a magnetic stir plate, heated up to 50° C., and the solution was vigorously mixed with a bar magnet.
# Compound #4 (OHD) and a sunscreen solvent were weighed in a Becher. The Becher was placed on a magnetic stir plate, heated up to 50° C., and the solution was vigorously mixed with a bar magnet.
# Compound #5 (BOO) and a sunscreen solvent were weighed in a Becher. The Becher was placed on a magnetic stir plate, heated up to 50° C., and the solution was vigorously mixed with a bar magnet.
# Compound #6 (BOO-OM) and a sunscreen solvent were weighed in a Becher. The Becher was placed on a magnetic stir plate, heated up to 50° C., and the solution was vigorously mixed with a bar magnet.
# [4] = test system: thiolated polylysine matrix; assay: Bio adhesion on thiolated polylysine matrix (UV absorbance at 310 nm after ethanol washes); conditions: overnight incubation in ethanol/PBS (90%/10%), washed 10 times with ethanol
# Protocol: as §1
compound,measurement,setting,value
"CCCCC(CC)COc1ccc(-c2nc(-c3ccc(OC)cc3)nc(-c3ccc(OCC(CC)CCCC)cc3OCCCCCCCCN3C(=O)C=CC3=O)n2)c(OCCCCCCCCNC(=O)C(C#N)=C(c2ccccc2)c2ccccc2)c1 (stereo not drawn) [Compound #6, 2-cyano-N-(8-(2-(4-(2-((8-(2,5-dioxo-2,5-dihydro-1H-pyrrol-1-yl)octyl)oxy)-4-((2-ethylhexyl)oxy)phenyl)-6-(4-methoxyphenyl)-1,3,5-triazin-2-yl)-5-((2-ethylhexyl)oxy)phenoxy)octyl)-3,3-diphenylacrylamide]",bioadhesion,[1],no bioadhesion
same,"λmax double peak, first peak",[2]; Dottisol,290 nm
same,"λmax double peak, second peak",[2]; Dottisol,307 nm
same,"λmax double peak, first peak",[2]; Dubdis,289 nm
same,"λmax double peak, second peak",[2]; Dubdis,309 nm
same,λmax absorbance shift in UVB versus the mix of BEMT-OCR,"[2]; same molar concentration, Dubdis, same shift in Dottisol",≥ 20 nm
same,UVB protection of the pig skin compared to the mix OCR+BEMT,"pig skin; 2 h incubation, DMDA",similar
same,"bio adhesive (pig skin, ethanol wash)",pig skin; conclusion from UVB protection after ethanol wash,is bio adhesive
same,UVB Fluorescence (Ex300/Em460) No Wash,"pig skin; pig skin autofluorescence after 2 h of incubation, DMDA (dimethyl capramide), Mean +/− SD, N = 3",40608 +/− 3466
same,UVB Fluorescence (Ex300/Em460) EtOH Wash,"pig skin; pig skin autofluorescence after 2 h of incubation, DMDA, 10 mL Ethanol 5 min, Mean +/− SD, N = 3",108875 +/− 4401
same,UVB protection after ethanol wash compared to the initial protection before washing,"pig skin; pig skin, 2 h incubation, DMDA",reduced twice
same,soluble at ratio,[3]; Dimethyl capramide (Spectrasolv DMDA),1/10
same,soluble at ratio,[3]; Dottisol (dimethyl isosorbide),½
same,soluble at ratio,[3]; Dubdis (Diisopropyl sebacate),½
same,"bio adhesion, UV absorbance at 310 nm",[4],showed a bio adhesion
